Assay results from patent publication US20190022162A1, “COMBINATION ANTICANCER ENDOWED WITH ANTITUMOR ACTIVITY, COMPRISING ALKALOIDS OF CHELIDONIUM MAJUS” (International Society for Drug Development S.R.L., priority 2015, published 2019).

Legend:
[1] = system: U343 (glioblastoma); assay: WST-1 assay (dehydrogenase activity / cell viability), U343 cells; details: 48 h
[2] = system: MIA PaCa-2 (pancreatic carcinoma); assay: WST-1 assay (dehydrogenase activity / cell viability), MIA PaCa-2 cells
[3] = system: MIA PaCa-2 pancreatic cancer cell line; assay: Cell counting (Trypan blue, Neubauer chamber), MIA PaCa-2 cells; assay type: cell-based; details: for percentage of viable cells relative to the control: 48 h
Protocol: (§1) The MIA PaCa-2 cells were cultivated in T25 flasks and treated with the agents after reaching a confluence of 90%. After a 48 hours treatment, the cells were detached with trypsin-EDTA and suspended in medium consisting of 50% DMEM and 50% Trypan blue. The number of viable cells after each treatment was estimated by using the Neubauer counting chamber, excluding those cells which turned out positive to Trypan blue. At least three counts were made for each treatment.
The percentage of viable cells relative to the control was determined by the ratio between the number of treated cells and the number of untreated cells.

[4] = system: human dermal fibroblasts (HDF); assay: Cell counting (Trypan blue, Neubauer chamber), HDF cells; assay type: cell-based
Protocol: (§2) For sake of completeness' of information and for the purpose of evaluating the differential cytotoxicity exerted both by the individual components of the combinations and by the combinations themselves on tumour and normal cells, the same treatments tested on U343 cells were also conducted on human dermal fibroblasts (HDF), chosen as a model of cells not concerned by tumour pathologies; this allowed, in the case of treatments tested on U343 cells, evaluations of the differential effects of the tested agents against tumour cells and against a model of normal cells, in accordance with the invention.
as §1, with “U343 cells and the HDF” for “MIA PaCa-2”, “After” for “After a”, “hours of” for “hours”, “excluding” for “excluding those”, “cells” for “cells which turned out”, “countings” for “counts”
(§3) The percentage of viable cells compared to the control was determined by the ratio between the number of treated cells and the number of untreated cells.

[5] = as above; assay type: cell-based, human; details: human, human dermal fibroblasts (HDF)
Protocol: as §2
as §1, with “U343 cells and the HDF” for “MIA PaCa-2”, “After” for “After a”, “hours of” for “hours”, “excluding” for “excluding those”, “cells” for “cells which turned out”, “countings” for “counts”
as §3

[6] = system: U343 (glioblastoma); assay: Cell counting (Trypan blue, Neubauer chamber), U343 cells; assay type: cell-based; details: for percentage of viable cells compared to the control: 48 h
Protocol: as §1, with “U343 cells and the HDF” for “MIA PaCa-2”, “After” for “After a”, “hours of” for “hours”, “excluding” for “excluding those”, “cells” for “cells which turned out”, “countings” for “counts”
as §3

[7] = system: U343 cells / HDF cells; assay: Therapeutic Favourability Index (ratio of viable U343 to viable HDF cells); assay type: cell-based
Excerpt: It may be useful to remind that the TFI parameter allows estimating the ratio between desired cytotoxicity (on U343 cells) and undesired cytotoxicity (on HDF cells used as a normal cell model). The lower the value of the TFI parameter, the more the assayed agent is adequate for therapeutic use, since this parameter measures the ratio between desired cytotoxicity (on tumour cells) and undesired cytotoxicity (on the cells of the non-tumour model).

[8] = 2.154 μM (combination equimolar)
[9] = 4.642 μM (combination equimolar)

CN1Cc2c(ccc3c2OCO3)[C@@H]2[C@H]1c1cc3c(cc1C[C@@H]2O)OCO3 [Chelidonine, chelidonine]
Δ (viability %) ([1]; 0.1 μM (combination equimolar)): 2.4722% | Δ (viability %) ([1]; 1 μM (combination equimolar)): 25.9168% | Δ (viability %) [1, 8]: 40.0495% | Δ (viability %) [1, 9]: 24.4335% | Δ (viability %) ([1]; 10 μM (combination equimolar)): 14.3799%

Nc1ccn([C@@H]2O[C@H](CO)[C@@H](O)C2(F)F)c(=O)n1 [Gemcitabine, gemcitabine, reference compound]
effect on cell metabolic activity ([2]; agent alone, 0.1-10 μM): essentially negligible increase | percentage of viable cells relative to the control ([3]; Gemcitabine 20 μM): 33% | viability at 20 µM ([3]; Homo sapiens, MIA PaCa-2, 48 h, Gemcitabine 20 μM, read-out: percentage of viable cells relative to the control): > 30%

COc1ccc2cc3[n+](cc2c1OC)CCc1cc2c(cc1-3)OCO2 [Berberine, berberine]
Δ (viability %) ([2]; 0.215 μM (combination equimolar), 48 h): 5.73% | decrease in the metabolic activity ([2]; starting from concentrations slightly lower than 10 μM): approx. 50% | % proliferation of HDF against control ([4]; 0.464 μM): 82.65% | % proliferation of HDF against control ([4]; 2.154 μM): 71.41% | % proliferation of HDF against control ([4]; 10.0 μM): 67.35% | viability at 48 h, 0.464 μM ([5]; Ber 0.464 μM, 48 h, read-out: percentage of viable cells compared to the control): 82.7% | viability at 48 h, 2.154 μM ([5]; Ber 2.154 μM, 48 h, read-out: percentage of viable cells compared to the control): 70.4% | viability at 48 h, 10 μM ([5]; Ber 10 μM, 48 h, read-out: percentage of viable cells compared to the control): 67.3% | Δ (viability %) ([1]; 0.1 μM (combination equimolar)): 23.2128% | Δ (viability %) ([1]; 0.215 μM (combination equimolar)): 12.3254% | Δ (viability %) ([1]; 0.464 μM (combination equimolar)): 36.3599% | Δ (viability %) ([1]; 1 μM (combination equimolar)): 27.3008% | Δ (viability %) [1, 8]: 15.4889% | Δ (viability %) [1, 9]: 11.3394% | Δ (viability %) ([1]; 10 μM (combination equimolar)): 10.3533% | % proliferation of U343 against control ([6]; 0.464 μM): 94.00% | % proliferation of U343 against control ([6]; 2.154 μM): 82.60% | % proliferation of U343 against control ([6]; 10.0 μM): 59.80% | percentage of viable cells compared to the control ([6]; Ber 0.464 μM): 94% | percentage of viable cells compared to the control ([6]; Ber 2.154 μM): 82.6% | percentage of viable cells compared to the control ([6]; Ber 10 μM): 59.8% | TFI index U343/HDF % proliferation ratio ([7]; 0.464 μM): 1.137 | TFI index U343/HDF % proliferation ratio ([7]; 2.154 μM): 1.173 | TFI index U343/HDF % proliferation ratio ([7]; 10.0 μM): 0.888 | percentage of viable cells relative to the control ([3]; Ber 0.4 μM): 88% | percentage of viable cells relative to the control ([3]; Ber 2.0 μM): 51% | percentage of viable cells relative to the control ([3]; Ber 10 μM, listed as Ber): 33% | percentage of viable cells relative to the control ([3]; Ber 50 μM): 24%

Cn1nnc2c(C(N)=O)ncn2c1=O [temozolomide, reference compound]
cytotoxicity at 48 h ([5]; direct administration, decrease up to, read-out: reduction in the percentage of viable HDF cells): 60 to 70%
